Experimental data taken from the NIST ThermoML archive (doi:10.1021/acs.jced.8b00132).
“And” between values parts separate entries of the source, which are not always exact repeats. Equal values may be shown once.

Conditions: transient hot wire

O=C(C(F)(F)C(F)(F)F)C(F)(C(F)(F)F)C(F)(F)F [dodecafluoro-2-methylpentan-3-one]
Conditions	thermal conductivity
302.17 K, 68802 kPa, Liquid	0.07801 W/m/K
302.17 K, 68805 kPa, Liquid	0.07819 W/m/K
302.18 K, 185 kPa, Liquid	0.05684 W/m/K
302.19 K, 184 kPa, Liquid	0.05683 W/m/K
302.19 K, 38646 kPa, Liquid	0.07042 W/m/K
302.19 K, 38653 kPa, Liquid	0.07047 W/m/K
302.2 K, 4505 kPa, Liquid	0.05895 W/m/K
302.2 K, 4509 kPa, Liquid	0.05896 W/m/K
302.2 K, 22376 kPa, Liquid	0.06575 W/m/K
302.2 K, 22378 kPa, Liquid	0.06574 W/m/K
302.21 K, 181 kPa, Liquid	0.05683 W/m/K and 0.05685 W/m/K
302.21 K, 9730 kPa, Liquid	0.06078 W/m/K
302.21 K, 9731 kPa, Liquid	0.06057 W/m/K
302.22 K, 29975 kPa, Liquid	0.06769 W/m/K and 0.06766 W/m/K
302.23 K, 38 kPa, Gas	0.01171 W/m/K
302.24 K, 34 kPa, Gas	0.01182 W/m/K
302.24 K, 36 kPa, Gas	0.01189 W/m/K
302.25 K, 34 kPa, Gas	0.01189 W/m/K
302.26 K, 4429 kPa, Liquid	0.05855 W/m/K
302.26 K, 4432 kPa, Liquid	0.05857 W/m/K
302.26 K, 15648 kPa, Liquid	0.06339 W/m/K
302.26 K, 22430 kPa, Liquid	0.06528 W/m/K
302.27 K, 15647 kPa, Liquid	0.06339 W/m/K
302.27 K, 22437 kPa, Liquid	0.06518 W/m/K
302.29 K, 121 kPa, Liquid	0.05692 W/m/K
302.3 K, 121 kPa, Liquid	0.057 W/m/K
302.31 K, 92 kPa, Liquid	0.05649 W/m/K
302.31 K, 97 kPa, Liquid	0.05641 W/m/K
302.35 K, 9934 kPa, Liquid	0.0612 W/m/K
302.35 K, 9940 kPa, Liquid	0.06118 W/m/K
302.46 K, 4504 kPa, Liquid	0.05889 W/m/K
302.47 K, 4505 kPa, Liquid	0.05889 W/m/K
302.48 K, 184 kPa, Liquid	0.05681 W/m/K
302.49 K, 184 kPa, Liquid	0.05679 W/m/K
302.5 K, 181 kPa, Liquid	0.05679 W/m/K and 0.05678 W/m/K
302.52 K, 15868 kPa, Liquid	0.06291 W/m/K
302.53 K, 15872 kPa, Liquid	0.06281 W/m/K
302.54 K, 68548 kPa, Liquid	0.07804 W/m/K
302.54 K, 68549 kPa, Liquid	0.07799 W/m/K
302.57 K, 121 kPa, Liquid	0.05687 W/m/K and 0.05695 W/m/K
302.58 K, 58446 kPa, Liquid	0.0756 W/m/K
302.59 K, 58445 kPa, Liquid	0.07563 W/m/K
302.6 K, 34 kPa, Gas	0.01198 W/m/K
302.61 K, 36 kPa, Gas	0.01183 W/m/K
302.61 K, 38 kPa, Gas	0.01193 W/m/K
302.61 K, 68790 kPa, Liquid	0.07804 W/m/K
302.61 K, 68801 kPa, Liquid	0.07795 W/m/K
302.63 K, 48154 kPa, Liquid	0.07294 W/m/K
302.63 K, 48162 kPa, Liquid	0.07285 W/m/K
302.65 K, 15984 kPa, Liquid	0.06295 W/m/K
302.65 K, 15986 kPa, Liquid	0.06304 W/m/K
302.68 K, 38648 kPa, Liquid	0.07035 W/m/K
302.69 K, 38638 kPa, Liquid	0.07035 W/m/K
302.72 K, 9724 kPa, Liquid	0.06082 W/m/K
302.72 K, 9726 kPa, Liquid	0.06095 W/m/K
302.73 K, 29973 kPa, Liquid	0.06771 W/m/K
302.74 K, 29982 kPa, Liquid	0.06772 W/m/K
302.78 K, 4430 kPa, Liquid	0.0586 W/m/K
302.79 K, 4428 kPa, Liquid	0.05856 W/m/K
302.79 K, 22448 kPa, Liquid	0.06525 W/m/K
302.8 K, 22443 kPa, Liquid	0.06527 W/m/K
302.85 K, 95 kPa, Liquid	0.05658 W/m/K
302.86 K, 96 kPa, Liquid	0.05645 W/m/K
303.01 K, 36 kPa, Gas	0.01199 W/m/K
303.02 K, 38 kPa, Gas	0.01194 W/m/K
303.03 K, 35 kPa, Gas	0.01196 W/m/K
303.04 K, 68537 kPa, Liquid	0.07796 W/m/K
303.04 K, 68564 kPa, Liquid	0.07806 W/m/K
303.07 K, 15868 kPa, Liquid	0.06292 W/m/K
303.07 K, 15869 kPa, Liquid	0.06282 W/m/K
303.1 K, 58422 kPa, Liquid	0.07541 W/m/K
303.1 K, 58439 kPa, Liquid	0.07546 W/m/K
303.11 K, 68765 kPa, Liquid	0.07805 W/m/K
303.11 K, 68772 kPa, Liquid	0.07794 W/m/K
303.16 K, 48157 kPa, Liquid	0.07292 W/m/K
303.17 K, 48152 kPa, Liquid	0.07285 W/m/K
303.2 K, 15974 kPa, Liquid	0.06276 W/m/K
303.2 K, 15979 kPa, Liquid	0.06281 W/m/K
303.22 K, 38643 kPa, Liquid	0.07047 W/m/K
303.23 K, 38644 kPa, Liquid	0.0705 W/m/K
303.29 K, 9716 kPa, Liquid	0.06072 W/m/K
303.29 K, 9741 kPa, Liquid	0.06069 W/m/K
303.3 K, 29978 kPa, Liquid	0.06778 W/m/K
303.3 K, 29993 kPa, Liquid	0.06773 W/m/K
